Test results as given in US9669005B2, “Use of naringenin in preparing drugs for preventing and/or treatment abdominal aortic aneurysm” (priority 2013, dated 2017).

Columns and labels:
Format in all cases: in vivo
[1] = test system: matrix metalloproteinase; test: In situ zymography, CaPO4 model; conditions: CaPO4 daubed mice; FIG. 4A
Protocol: After the aortas of mice were perfused with PBS, fresh tissue was directly embedded with OCT, put in liquid nitrogen for freezing, and then continuously sliced. Firstly, washing was performed with PBS for 3 min, thrice. A fluorescently labeled DQ-gelation-FITC substrate (Sigma-Aldrich, St. Louis, Mo.) was incubated 1 hour at 37° C. Under normal circumstances, fluorescent label for the substrate was packaged, so there is no fluorescence; after activated gelatinase degraded gelatin, green fluorescent label would be exposed. After the section was incubated, washing was performed with PBS for 3 min, thrice, and then the section was sealed. Immunofluorescence confocal microscopy was used to irradiate. The stronger fluorescence was, which means, the stronger activity of matrix metalloproteinase was.

[2] = Biochemical indexes, body weight and blood pressure of angiotensin II induced ApoE-/- mice; conditions: naringenin 50 mg/kg gavage 28 days
Protocol: Firstly, 16 weeks of male ApoE^−/− mice were randomly divided into two groups, control group (n=16) and naringenin group (n=15), respectively. And then they were anesthetized by 0.1% pentobarbital sodium, and mini pumps (model 2004, Alzet, Cupertino, Calif.) were subcutaneously submerged; angiotensin II (Sigma-Aldrich, St. Louis, Mo.) dissolved with normal saline was added to the pump, such that drugs can be continuously administrated for 4 weeks at a dosage of 1000 ng/kg/min. From the first day after surgery, gavage was daily performed to mice at constant time points, water gavage in control group, and naringenin gavage (50 mg/kg) in naringenin group. Materials were removed 28 days after gavage. Blood pressure of the mice was measured by tail cuff method with BP-89A sphygmomanometer (Beijing Softron Biotechnology Co., Ltd.), and the mice were weighted. Blood was drawn in inner canthus of the mice, and after centrifuged for 10 minutes at 6000 rotations, supernatant was removed and the blood fat levels of the mice were measured.

[3] = test system: IL-6 and MCP-1; test: Immunofluorescent staining of IL-6 and MCP-1 in vascular walls, angiotensin II model; conditions: AngII ApoE-/- mice; naringenin gavage; immunofluorescence; FIG. 7C
Protocol: In order to illustrate the mechanism by which naringenin reduces inflammatory reaction of abdominal aorta vascular walls of mice, immunofluorescent staining was performed on IL-6 and MCP-1 by continuous sections to analyze their distributions and expressions in vascular walls.

[4] = test system: NMP-9 and NMP-2; test: Gelatin zymography, angiotensin II model; conditions: AngII ApoE-/- mice; naringenin gavage; FIG. 8B
Protocol: After extravasated blood in fresh removed blood vessels of infrarenal site in abdominal aortas of mice were cleared, and fat and connective tissues were removed, and blood vessels were cut into 1 cm ring, and put into 24-well plate. Blood vessels were cultured for 24 hours using 0.5 ml serum-free medium with high glucose. After the cultured supernatant protein was quantified, mercaptoethanol-free protein sample loading buffer was added, cryopreserved at −80° C. Water was used to prepare gelatin (Sigma-Aldrich, St. Louis, Mo.) into a concentration of 10 mg/ml, which was added to separation gel of protein electrophoresis according to the proportion of 1:10, causing the final concentration of gelatin as 1 mg/ml. Electrophoresis was performed in a voltage of 80V at 4° C. The gel was put into 0.25% Trixon-100 solution, and washing was performed twice in 30 minutes. […] Incubated gel was put into Coomassie brilliant blue to stain for 1-2 hours at room temperature, washed for 30 minutes with a solution having 30% methanol and 10% glacial acetic acid, a solution having 20% methanol and 10% glacial acetic acid, and a solution having 10% methanol and 5% glacial acetic acid, respectively, and then analyzed with Odyssey infrared fluorescence scanning system (LI-COR Biosciences, Lincoln, Nebr.). […]

[5] = test system: aortic aneurysms in angiotensin II induced ApoE knockout mice; test: Formed aortic aneurysms, ApoE knockout mice, second round of angiotensin II submerging pump with naringenin gavage
Protocol: In addition, we used the method of angiotensin II subcutaneous submerging pump for 28 days (1,000 ng/kg/min), to induce abdominal aortic aneurysms on 20 weeks of male ApoE knockout mice (totally 40 mice) and used ultrasound to detect the diameters of the abdominal aortas. The diameter greater than 50% of diameter of adjacent blood vessel was used as a standard of the onset of an aortic aneurysm, and 28 mice suffered from aortic aneurysms 28 days later.
Angiotensin II submerging pump was continuously given to all the mice for 28 days. […] In the mice which had suffered from aortic aneurysms previously, 4 mice in the 14 mice by water gavage died from fracture of aortic aneurysms, the other 10 survived mice all suffered from serious aortic aneurysms (the average diameter reaches 3.00±0.58 mm).

[6] = AngII 1000 ng/kg/min ApoE-/- mice

In the case of `O=C1C[C@@H](c2ccc(O)cc2)Oc2cc(O)cc(O)c21` [naringenin], the “activity of matrix metalloproteinase (in situ zymography)” value [1] is reported as “reduce the activity of matrix metalloproteinase induced by CaPO4 daubing”, the Body weight [2, 6] is reported as 28.9 ± 2.03 g and the Cholesterol [2, 6] is reported as 8.46 ± 2.45 mmol. It also gave a High density lipoprotein [2, 6] of 56.5 ± 5.97 mg/deciliter, a Low density lipoprotein [2, 6] of 44.1 ± 15.9 mg/deciliter and a Triglyceride [2, 6] of 0.69 ± 0.35 mmol. For the same compound, the Blood pressure ([2]; AngII 1000 ng/kg/min ApoE-/- mice, tail cuff method) was 136.6 ± 14.27 mmHg, the “blood pressure and body weight” value ([2]; AngII ApoE-/- mice) was “does not have an effect” and the “levels of cholesterol, triglyceride, and low density lipoprotein” value ([2]; AngII ApoE-/- mice) was “reduces”. For the same compound, the “production of IL-6 and MCP-1 in vascular walls” value [3] was “significantly decreases”, the “active form of NMP-9 and NMP-2 (gelatin zymography)” value [4] was “do not change significantly” and the “zymogen form of MMP-9 (gelatin zymography)” value [4] was “significantly decreases”. The “survival after the second round of angiotensin II” value ([5]; ApoE knockout mice with previously formed aneurysms, 14 mice, naringenin gavage, 4 of 14 died in water group) was “all normally survived”, the “maximum diameter of the blood vessels (abdominal aorta, ultrasound)” value ([5]; ApoE knockout mice with previously formed aneurysms, naringenin gavage, second AngII round, water group 3.00±0.58) was 1.62±0.45 mm and the “number of mice in which aortic aneurysms were observed” value ([5]; ApoE knockout mice with previously formed aneurysms, of 14 mice, naringenin gavage, second AngII round 28 days) was 5. The “incidence rate of aortic aneurysms” value ([5]; ApoE knockout mice without aneurysm after first AngII round, 6 mice, second AngII round 28 days with naringenin gavage, control 50%) was 16%.
